Assay results reported in patent US20260365637A1, “DUAL EZH2-HSP90 INHIBITORS” (TAIPEI MEDICAL UNIVERSITY, priority 2023, published 2026).

Tests used:
EZH2 (Core Histone) = EZH2 (Core Histone) (Homo sapiens, UniProt Q15910); experiment: EZH2 inhibition assay (Reaction Biology Corporation); format: biochemical
Description: The EZH2 inhibitory ability of the synthesized adduct was assessed by Reaction Biology Corporation, Malvern, PA (http://www.reactionbiology.com).

HSP90a = HSP90a (Homo sapiens, UniProt P07900); experiment: In vitro HSP90 inhibition assay (Reaction Biology Corporation); format: biochemical
Description: The HSP90 inhibitory activity of the synthesized adduct was assessed by Reaction Biology Corporation, Malvern, PA (http://www.reactionbiology.com).
An in-vitro experiment was performed to assess the inhibitory effect of the synthesized adducts on the heat shock protein 90 (HSP90).

Pt3R cells [1] = experiment: Itraq-based proteomics analysis of Pt3R cells; format: cell-based, human; design: M059/DMSO, P4HA2 (O15460) / M059/DMSO, ATP6V1E1 (P36543) / M059/DMSO, HSPH1 (Q92598) / M059/DMSO, ACTB (P60709) / M059/DMSO, HSPB1 (P04792) / M059/DMSO, S100A10 (P60903) / M059/DMSO, LRPAP1 (P30533) / M059/DMSO, GIPC1 (O14908) / M059/DMSO, HSPE1 (P61604) / M059/DMSO, OLA1 (Q9NTK5) / M059/DMSO, EEF1B2 (P24534) / M059/DMSO, PSMD3 (O43242) / M059/DMSO, ZYX (Q15942) / M059/DMSO, HK1 (P19367) / M059/DMSO, ARF3 (P61204) / M059/DMSO, TWF1 (Q12792) / M059/DMSO, HSPA8 (P11142) / M059/DMSO, CTNNB1 (P35222) / M059/DMSO, EHD1 (Q9H4M9) / M059/DMSO, HSPA4 (P34932) / M059/DMSO, PSMD14 (O00487): dose or concentration left out as unconfirmed
Description: (§1) Pt3 GBM cells were isolated from a GBM patient as described in our previous study. Temozolomide (TMZ)-resistant phenotype of Pt3R cells had been validated previously. Pt3 cells were cultured in DMEM-supplemented with 10% fetal bovine serum, 100 μg/ml streptomycin and 100 μg/ml penicillin G. Pt3R cells were cultured in the presence of 100 μM of TMZ (MilliporeSigma Corporate, St. Louis, MO, USA).
(§2) RNA was isolated using the RNA extracting kit (Zymo Research, Irvine, CA, USA), and subjected to RNA-seq serviced by BIOTOOLS Co., Ltd (New Taipei City, Taiwan). Cell pellets were collected and subjected to proteomic analysis serviced by BIOTOOLS Co., Ltd. The comparison in gene expression between Pt3 and Pt3R was performed using RNA seq, and has been described previously.
Having identified the desired chemical probe 7, we assessed global protein expression using Itraq-based proteomics analysis to estimate whether 7 suppresses HSP90 (Pt3R cell lines). […] This observation is aligned with the results attained with geldanamycin treatment (a well-known HSP90 inhibitor) (Cheung, C. H. A.; Chen, H.-H.; Cheng, L.-T.; Lyu, K. W.; Kanwar, J. R.; Chang, J.-Y. TargetingHsp90 with small molecule inhibitors induces the over-expression of the anti-apoptotic molecule, survivin, in human A549, HONE-1 and HT-29 cancer cells. Mol. Cancer 2010, 9 (1), 1-11; Kuroyanagi, G.; Tokuda, H.; Fujita, K.; Kawabata, T.; Sakai, G.; Kim, W.; Hioki, T.; Tachi, J; Matsushima-Nishiwaki, R.; Otsuka, T. Upregulation of TGF-β-induced HSP27 by HSP90 inhibitors in osteoblasts. BMC Musculoskelet. Disord. 2022, 23 (1), 495) and confirms the HSP90-suppressive activity of compound 7 in GBM cells.

Pt3R cells [2] = experiment: RNA-seq gene expression profiling in Pt3R cells; format: cell-based, human
Description: as §1, §2
To gain insights regarding the ability of dual inhibitor 7 to suppress the viability of TMZ-resistant GBM cells, RNA-seq to analyze gene expression profiles was performed.

Pt3R cells [3] = experiment: Proliferation of Pt3R cells after treatment (FIG. 4A); format: cell-based, human; settings: 2 μM, 48 h
Pt3R cells [4] = experiment: Western blotting in Pt3R cells; format: cell-based, human
Excerpt: The details of the procedure are described in our previous study. Primary antibodies, anti-CENPA, anti-CENPE, anti-CENPF and anti-CENPI antibodies, were purchased from abcam (Cambridge, UK); anti-CDK1 and anti-cyclin B1 antibodies were purchased from Santa Cruz Biotechnology, Inc. (Dallas, TX, USA); anti-EZH2 and anti-H3K27^me3 antibodies were purchased from GeneTex International Corporation (Hsinchu, Taiwan).
Furthermore, the impact of compound 7 treatment on centromere proteins (CENPs) was assessed. As such, CENPs are the main constituent proteins of the kinetochore, which are essential for cell division. CENP expression is elevated in GBM tissues and correlated with unfavourable overall survival in glioma patients.
(§3) Treatment concentration of MPT1A059 was indicated.

Pt3R cells [5] = experiment: Cell cycle analysis (propidium iodide, flow cytometry); format: cell-based, human; settings: 24 h, FIG. 5E
Pt3 cells = experiment: Cellular ROS assay (DHR, flow cytometry) in Pt3 cells; format: cell-based, human; settings: 48 h, FIG. 7A
Excerpt: Dihydrorhodamine 123 (DHR; Thermo Fisher Scientific, Waltham, MA, USA) was used to label cellular ROS detected by flow cytometry, and the MitoSOX reagent (Thermo Fisher Scientific) was used to label mitochondrial ROS [55].
as §3

Sequence of EZH2 (Core Histone) (Q15910 whole entry): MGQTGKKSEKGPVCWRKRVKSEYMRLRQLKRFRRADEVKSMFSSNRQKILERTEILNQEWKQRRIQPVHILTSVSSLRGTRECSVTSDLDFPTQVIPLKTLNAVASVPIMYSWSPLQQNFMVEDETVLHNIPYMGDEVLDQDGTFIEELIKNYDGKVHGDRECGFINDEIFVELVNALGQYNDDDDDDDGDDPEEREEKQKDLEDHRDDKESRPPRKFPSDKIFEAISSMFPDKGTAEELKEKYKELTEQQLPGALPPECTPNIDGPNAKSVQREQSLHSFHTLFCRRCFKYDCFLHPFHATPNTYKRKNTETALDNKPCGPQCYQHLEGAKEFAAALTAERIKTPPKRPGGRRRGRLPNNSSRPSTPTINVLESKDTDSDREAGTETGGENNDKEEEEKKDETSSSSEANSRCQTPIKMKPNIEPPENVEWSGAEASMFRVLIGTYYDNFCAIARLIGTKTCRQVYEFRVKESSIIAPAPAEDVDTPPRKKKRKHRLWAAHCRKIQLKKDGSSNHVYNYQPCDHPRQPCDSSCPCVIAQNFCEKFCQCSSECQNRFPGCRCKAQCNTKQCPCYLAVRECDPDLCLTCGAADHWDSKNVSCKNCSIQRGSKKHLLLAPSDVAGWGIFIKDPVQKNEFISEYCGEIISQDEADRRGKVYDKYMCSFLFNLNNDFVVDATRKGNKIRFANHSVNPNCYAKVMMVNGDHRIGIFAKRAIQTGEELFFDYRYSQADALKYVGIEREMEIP
Sequence of EZH2 (Core Histone) (O75530 whole entry partner): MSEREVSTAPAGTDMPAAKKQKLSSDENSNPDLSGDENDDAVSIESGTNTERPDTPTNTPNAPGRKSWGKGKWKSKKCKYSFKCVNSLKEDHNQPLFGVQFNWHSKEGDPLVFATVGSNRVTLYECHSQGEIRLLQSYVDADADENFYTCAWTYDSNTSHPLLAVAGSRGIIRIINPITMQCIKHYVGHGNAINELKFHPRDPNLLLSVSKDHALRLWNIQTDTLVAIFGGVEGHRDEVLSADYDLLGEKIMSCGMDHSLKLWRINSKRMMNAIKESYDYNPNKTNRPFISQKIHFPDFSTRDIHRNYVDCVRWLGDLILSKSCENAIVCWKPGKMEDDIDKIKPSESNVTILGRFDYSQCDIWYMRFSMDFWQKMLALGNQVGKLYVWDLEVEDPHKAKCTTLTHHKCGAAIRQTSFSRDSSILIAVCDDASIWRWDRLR
Sequence of EZH2 (Core Histone) (Q15022 whole entry partner): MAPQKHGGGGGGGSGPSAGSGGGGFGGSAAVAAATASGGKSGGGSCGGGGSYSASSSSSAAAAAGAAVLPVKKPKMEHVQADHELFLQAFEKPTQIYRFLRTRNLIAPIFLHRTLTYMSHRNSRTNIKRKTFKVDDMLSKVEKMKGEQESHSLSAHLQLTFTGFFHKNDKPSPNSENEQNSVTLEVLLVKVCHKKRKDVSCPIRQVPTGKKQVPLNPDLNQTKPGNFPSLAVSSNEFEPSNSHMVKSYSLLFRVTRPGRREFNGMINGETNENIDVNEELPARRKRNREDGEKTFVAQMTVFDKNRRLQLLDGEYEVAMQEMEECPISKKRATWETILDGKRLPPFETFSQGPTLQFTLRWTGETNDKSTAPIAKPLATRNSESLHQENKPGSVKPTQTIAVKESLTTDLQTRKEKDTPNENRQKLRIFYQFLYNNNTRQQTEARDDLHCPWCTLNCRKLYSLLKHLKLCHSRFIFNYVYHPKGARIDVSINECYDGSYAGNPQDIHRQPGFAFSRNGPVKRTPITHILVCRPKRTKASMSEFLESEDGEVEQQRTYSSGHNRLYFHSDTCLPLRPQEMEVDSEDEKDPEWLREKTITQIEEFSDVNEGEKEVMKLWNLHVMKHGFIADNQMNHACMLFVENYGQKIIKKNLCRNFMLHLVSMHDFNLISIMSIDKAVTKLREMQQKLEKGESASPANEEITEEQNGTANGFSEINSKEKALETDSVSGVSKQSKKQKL
Sequence of EZH2 (Core Histone) (Q09028 whole entry partner): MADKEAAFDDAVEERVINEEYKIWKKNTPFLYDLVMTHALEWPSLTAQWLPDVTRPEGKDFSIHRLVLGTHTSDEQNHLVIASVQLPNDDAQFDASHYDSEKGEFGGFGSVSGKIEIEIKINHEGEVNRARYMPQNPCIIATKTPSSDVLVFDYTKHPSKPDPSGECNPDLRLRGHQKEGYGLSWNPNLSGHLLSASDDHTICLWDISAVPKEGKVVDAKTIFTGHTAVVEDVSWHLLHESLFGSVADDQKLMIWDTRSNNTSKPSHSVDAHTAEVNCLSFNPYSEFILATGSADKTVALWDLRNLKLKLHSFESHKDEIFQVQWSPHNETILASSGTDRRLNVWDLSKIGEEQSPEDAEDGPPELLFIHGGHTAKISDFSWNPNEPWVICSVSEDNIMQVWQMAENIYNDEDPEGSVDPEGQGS
Sequence of EZH2 (Core Histone) (Q6ZN18 whole entry partner): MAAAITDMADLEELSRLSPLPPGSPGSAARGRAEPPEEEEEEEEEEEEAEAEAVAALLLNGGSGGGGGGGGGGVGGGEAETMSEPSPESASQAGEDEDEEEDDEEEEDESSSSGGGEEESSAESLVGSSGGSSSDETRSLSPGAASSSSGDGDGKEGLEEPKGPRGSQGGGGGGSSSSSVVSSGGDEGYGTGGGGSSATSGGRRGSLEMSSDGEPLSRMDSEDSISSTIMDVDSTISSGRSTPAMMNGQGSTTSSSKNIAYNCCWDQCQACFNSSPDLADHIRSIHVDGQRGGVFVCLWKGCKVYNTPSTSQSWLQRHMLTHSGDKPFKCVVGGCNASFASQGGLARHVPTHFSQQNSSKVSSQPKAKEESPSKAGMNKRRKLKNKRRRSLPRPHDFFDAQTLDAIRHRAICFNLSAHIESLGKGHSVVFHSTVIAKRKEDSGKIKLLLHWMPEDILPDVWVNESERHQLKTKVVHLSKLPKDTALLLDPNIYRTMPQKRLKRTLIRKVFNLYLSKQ

CCN(c1cc(-c2cccc(N(C)C(=O)c3cc(C(C)C)c(O)cc3O)c2)cc(C(=O)NCc2c(C)cc(C)[nH]c2=O)c1C)C1CCOCC1 [Compound 7, 3′-(2,4-dihydroxy-5-isopropyl-N-methylbenzamido)-N-((4,6-dimethyl-2-oxo-1,2-dihydropyridin-3-yl)methyl)-5-(ethyl(tetrahydro-2H-pyran-4-yl)amino)-4-methyl-[1,1′-biphenyl]-3-carboxamide]
IC50 (EZH2 (Core Histone)): 6.29 nM
HSP90 inhibitory potential in words (HSP90a): conferred HSP90 inhibitory potential
IC50 (HSP90a): 60.1 nM
HSP family proteins (HSPA1A, HSPA8, HSP90AA1, HSPB1, HSPH1 and HSPA4) (Pt3R cells [1]; Pt3R cells): significantly increased
M059/DMSO, PA2G4 (Q9UQ80) (Pt3R cells [1]; decreased): 0.628
M059/DMSO, ACTB (P60709) (Pt3R cells [1]; increased): 1.657
M059/DMSO, ARF3 (P61204) (Pt3R cells [1]; increased): 1.944
M059/DMSO, ATP5IF1 (Q9UII2) (Pt3R cells [1]; increased): 1.646
M059/DMSO, ATP6V1E1 (P36543) (Pt3R cells [1]; increased): 1.599
M059/DMSO, CTNNB1 (P35222) (Pt3R cells [1]; increased): 1.550
M059/DMSO, EEF1B2 (P24534) (Pt3R cells [1]; increased): 1.792
M059/DMSO, EHD1 (Q9H4M9) (Pt3R cells [1]; increased): 1.555
M059/DMSO, GIPC1 (O14908) (Pt3R cells [1]; increased): 1.699
M059/DMSO, HK1 (P19367) (Pt3R cells [1]; increased): 1.921
M059/DMSO, HSP90AA1 (P07900) (Pt3R cells [1]; increased): 1.958
M059/DMSO, HSPA4 (P34932) (Pt3R cells [1]; increased): 1.561
M059/DMSO, HSPA8 (P11142) (Pt3R cells [1]; increased): 2.096
M059/DMSO, HSPB1 (P04792) (Pt3R cells [1]; increased): 1.661
M059/DMSO, HSPE1 (P61604) (Pt3R cells [1]; increased): 1.710
M059/DMSO, HSPH1 (Q92598) (Pt3R cells [1]; increased): 1.642
M059/DMSO, LRPAP1 (P30533) (Pt3R cells [1]; increased): 1.667
M059/DMSO, OLA1 (Q9NTK5) (Pt3R cells [1]; increased): 1.745
M059/DMSO, P4HA2 (O15460) (Pt3R cells [1]; increased): 1.588
M059/DMSO, PSMD3 (O43242) (Pt3R cells [1]; increased): 1.801
M059/DMSO, PSMD14 (O00487) (Pt3R cells [1]; increased): 1.579
M059/DMSO, S100A10 (P60903) (Pt3R cells [1]; increased): 1.664
M059/DMSO, TWF1 (Q12792) (Pt3R cells [1]; increased): 1.995
M059/DMSO, ZYX (Q15942) (Pt3R cells [1]; increased): 1.903
DNA repair capacity (Pt3R cells [2]): highly suppressed
CENPF, CENPE, CENPA and CENPI (gene expression) (Pt3R cells [2]; FIG. 5C): decreased
RBBP8 and BRCA1 gene expression (Pt3R cells [2]; FIG. 6A): suppressed
expression of genes involved in processing DNA double-strand break and in homologous recombination (Pt3R cells [2]; FIG. 6A): decreased
expression of genes regulating homologous recombination (TOP2A, RAD54B, RAD21, EME1, BRIP1) (Pt3R cells [2]; FIG. 6H): suppressed
cell division and DNA repair gene sets (GSEA) (Pt3R cells [2]; GSEA): highly suppressed
M phase/kinetochore/spindle-related gene expression (Pt3R cells [2]; RNA-seq): decreased
apoptosis/necrosis-related gene expression (Pt3R cells [2]; RNA-seq): increased
number of gene expressions decreased (Pt3R cells [2]; RNA-seq, 2 μM, 48 h): 498
number of gene expressions increased (Pt3R cells [2]; RNA-seq, 2 μM, 48 h): 297
cell proliferation (Pt3R cells [3]): significantly inhibited cell proliferation
CDK1 and cyclin B1 expression (Pt3R cells [4]; FIG. 5D): downregulated
EZH2 expression and EZH2-modulated H3K27 trimethylation (Pt3R cells [4]; FIG. 7B): inhibited
catalase, superoxide dismutase (SOD) 1, glutathione reductase and glutathione peroxidase (GPX) 1 proteins (Pt3R cells [4]; FIG. 7B): decreased
CENPs protein expression (Pt3R cells [4]; Pt3R cells, FIG. 5D): decreased
cell cycle (Pt3R cells [5]): induced cell cycle arrest at the M phase
ROS level (Pt3 cells): increased
